Assay results published in the NIST ThermoML archive (doi:10.1021/je901085t).

Columns and labels:
[1] = wn = mass fraction of the nth substance listed; conditions: Capillary rise
[2] = Capillary rise

CC(F)F [1,1-difluoroethane] + CCC
[1]
Conditions	surface tension liquid-gas [mN/m]
248.15 K, w2 = 0.3497	14.65
248.24 K, w2 = 0.2008	15.35
248.37 K, w2 = 0.4922	13.88
253.14 K, w2 = 0.3497	13.96
253.15 K, w2 = 0.4922	13.25
253.19 K, w2 = 0.2008	14.7
258.1 K, w2 = 0.3497	13.22
258.1 K, w2 = 0.4922	12.55
258.15 K, w2 = 0.2008	14.02
263.1 K, w2 = 0.3497	12.43
263.18 K, w2 = 0.4922	11.93
263.19 K, w2 = 0.2008	13.32
268.13 K, w2 = 0.3497	11.85
268.16 K, w2 = 0.4922	11.19
268.19 K, w2 = 0.2008	12.72
273.08 K, w2 = 0.4922	10.49
273.15 K, w2 = 0.3497	11.2
273.19 K, w2 = 0.2008	12.04
278.16 K, w2 = 0.3497	10.31
278.18 K, w2 = 0.2008	11.35
278.18 K, w2 = 0.4922	9.895
283.16 K, w2 = 0.2008	10.48
283.16 K, w2 = 0.3497	9.754
283.18 K, w2 = 0.4922	9.111
288.15 K, w2 = 0.3497	9.186
288.17 K, w2 = 0.4922	8.51
288.18 K, w2 = 0.2008	9.752
293.13 K, w2 = 0.3497	8.519
293.16 K, w2 = 0.2008	9.136
293.16 K, w2 = 0.4922	7.919
298.1 K, w2 = 0.2008	8.465
298.1 K, w2 = 0.3497	7.79
298.15 K, w2 = 0.4922	7.255
303.15 K, w2 = 0.3497	6.986
303.18 K, w2 = 0.2008	7.708
303.2 K, w2 = 0.4922	6.616
308.11 K, w2 = 0.2008	7.125
308.11 K, w2 = 0.3497	6.317
308.46 K, w2 = 0.4922	5.985
313.16 K, w2 = 0.4922	5.421
313.18 K, w2 = 0.3497	5.675
313.19 K, w2 = 0.2008	6.518
318.13 K, w2 = 0.3497	5.133
318.14 K, w2 = 0.2008	5.897
318.14 K, w2 = 0.4922	4.913
323.16 K, w2 = 0.3497	4.602
323.17 K, w2 = 0.4922	4.269
323.18 K, w2 = 0.2008	5.202
328.12 K, w2 = 0.2008	4.614
328.12 K, w2 = 0.3497	3.958
328.15 K, w2 = 0.4922	3.789

CCC [propane]
[2]
Conditions	surface tension liquid-gas [mN/m]
283.16 K	8.811
288.17 K	8.134
293.13 K	7.568
298.1 K	6.915
303.12 K	6.349
